The source of these data is patent US6613507B1 (priority 2000, dated 2003).

In one data set the test system is hepatitis C. As to conditions: human, in vivo; cited from earlier work.
The format of data set [1] is physicochemical. As to conditions: pH 7.4.
For data set [2] the following is noted: dog, in vivo; cited from earlier work.

Turning to `NC12CC3CC(CC(C3)C1)C2` [amantadine, 1-adamantanamine], in the data set with hepatitis C, the “biochemical and virological markers” value is reported as “improved”. For the same compound, in data set [1], the “amino group protonated at physiological pH” value was “over 90%”.

Take `CNC[C@H](O)c1cccc(O)c1` [phenylephrine]: in data set [2], the “increase in blood pressure” value was 20%.
